Measurements: US6706754B2, “Reversed amidines and methods of using for treating, preventing, or inhibiting leishmaniasis” (The United States of America as represented by the …, priority 2000, dated 2004)
In brackets after ≈: the same amount, converted by molar mass. Entries after “also recorded” stand apart in the source; their conditions may differ. Structures can show the parent of a compound that is named as a salt.

Tests used:
[1] = system: L. mexicana infected macrophages; assay: Infected macrophage assay, L. mexicana; type: cell-based; conditions: for Macrophage IC50 L. mexicana: J774.G8 mouse macrophages, 72 hours, 33° C., number of infected macrophages inhibited by 50%
Description: The susceptibilities of L. mexicania infected macrophages to candidate compounds were determined by the following assay.
(§1) A one week old, confluent culture of J774.G8 mouse macrophages was washed three times with Hank's Balanced Salt Solution (HBSS) without calcium and magnesium (Sigma, St. Louis, Mo.). The J774.G8 mouse macrophages are a continuous cell line that have been cited in the literature as supporting continuous and intracellular growth of various Leishmania sp. and they have been used for drug assays against intracellular parasites, Trypanosoma cruzi and Leishmania sp. See Alcina, A., et al. (1988) Antimicrobial Agents & Chemotherapy. 32(9):1412-5; Mendez, S., et al. (1996) International Journal for Parasitology 26(6):619-22; Hodgkinson, V. H., et al. (1996) Experimental Parasitology 83(1):94-105; and Chang, K. P. (1980) Science 209(4462): 1240-42, which are herein incorporated by reference.
(§2) The macrophages were then incubated at 37° C. in a humidified 5% CO2 incubator for 15 minutes with a Trypsin-EDTA (0.05% Trypsin, 0.53 mM EDTA 4Na) solution (GIBCO BRL, Grand Island, N.Y.). The macrophages were then detached with a cell scraper and suspended by vigorous pipetting. The macrophages were then mixed with a late log phase culture of L. mexicana promastigotes to yield a solution comprising about 5×10^5 macrophages per ml and about 25×10^5 promastigotes per ml in DMEM (pH 7.4) supplemented with 10% heat inactivated fetal calf serum comprising penicillin (50 units/ml) and streptomycin (50 μg/ml).
(§3) The macrophage-parasite mixture was then pipetted into 96-well flat-bottom plates (Costar, Cambridge, Mass.) at 200 μl per well. Infection and attachment of the macrophages was allowed to occur over a period of about 48 hours at 33° C. in a humidified 5% CO2 incubator. The wells were washed three times with HBSS to remove extracellular parasites. Each well was then treated with serial dilutions of a given candidate compound in DMEM.
(§4) The treated plate was incubated for about 72 hours at 33° C. in a humidified 5% CO2 incubator. The macrophages in each well were detached into the DMEM used for the incubation by pipetting and scraping with the tip of a microliter pipettor. 75 μl of the cell suspension was transferred to a cytospin funnel and the cells were centrifuged onto microscope slides at 800 rpm for 5 minutes using a Cytospin centrifuge (Shandon, Pittsburgh, Pa.).
(§5) The slides were air dried and then fixed in methanol for 5 seconds. After the methanol evaporated, the slides were stained with 5% Giemsa stain (Fisher, Suwanee, Ga.) in phosphate buffer comprising 3.1 mM potassium phosphate dibasic and 8.3 mM sodium phosphate monobasic for 45 minutes. After thorough washing with flowing tap water, the slides were air dried and then viewed by oil immersion microscopy to determine percentage of infected cells. A cell was considered to be infected if it comprised one or more amastigote with a visible parasite nucleus and kinetoplast. Counting parasites and counting infected cells provided similar results when determining IC50 values.
(§6) The IC50 values (the concentration of the compound that inhibited the number of infected macrophages by 50%) were determined with the software program TableCurve (SPSS Science, Chicago, Ill.) using the following dose-response equation: y=a+b/(1+(x/c)^d), where x=the drug concentration, y=absorbance at 490 nm, a=upper asymptote, b=slope, c=IC50 and d=lower asymptote. FIG. 3 provides the graphical data obtained for compound 1DWB667 as an example.

[2] = system: L. donovani infected macrophages; assay: Infected macrophage assay, L. donovani; type: cell-based; conditions: J774.G8 mouse macrophages, 72 hours, 37° C.; number of infected macrophages inhibited by 50%
Excerpt: as §1, §2, §3, §4, §5, §6
The susceptibility of L. donovani infected macrophages to the compounds of the present invention were preformed by a modified protocol for L. mexicana infected macrophages above, wherein all incubations of the parasite infected macrophages were done at 37° C. rather than 33° C. FIG. 4 provides the graphical data for compound 1DWB667 as an example.

[3] = system: L. donovani axenic amastigote-like parasites; assay: Axenic amastigote assay (CellTiter 96 tetrazolium dye growth assay); type: cell-based; conditions: 72 hours, 37° C., pH 5.5, concentration that inhibited parasite growth by 50%
Description: The growth susceptibilities of L. donovani axenic amastigote-like parasites to the candidate compounds were measured in a three day assay using the tetrazolium dye-based CellTiter 96 Aqueous Non-Radioactive Cell Proliferation Assay Kit (Promega, Madison, Wis.) according to Werbovetz, K., et al. (1999) Mol. Biochem. Parasitol. 98:53-65, which is herein incorporated by reference. Pentamidine, at a starting concentration of 100 μM, and serial dilutions thereof were used as controls. Specifically, L. donovani axenic amastigotes, as described by Joshi, M. et al. (1993) Mol. Biochem. Parasitol. 58:345-354, which is herein incorporated by reference, were seeded at 10^6 cells/ml in 96-well flat-bottomed plates (Costar, Cambridge, Mass.) and maintained as axenic amastigote-like forms by serial passage at 37° C. in a humid atmosphere comprising 5% CO2 using a slightly modified potassium-based version of the medium described by Joshi, M. et al. (1993) in the presence or absence of a given candidate compound. The medium comprised 15 mM KCl, […] KH2PO4, 10 mM K2HPO4, 0.5 mM MgSO4, and 24 mM NaHCO3 to give a final potassium concentration of […]. The medium was supplemented with 20% fetal bovine serum and was brought to pH 5.5. The final volume in each well was 60 μl. The plates were incubated at 37° C. for 72 hours, then 12 μl of the aqueous CellTiter solution from the kit (Promega, Madison, Wis.) was added to each well according to the instructions of the manufacturer. The plates were returned to the incubator for about 2 to about 3 hours. Then the absorbance of each well was measured at 490 nm using a SpectraMax Plus microplate reader (Molecular Devices, Sunnyvale, Calif.).
The results for each candidate compound may be found in the FIG. 1. The IC50 values (the concentration of the agent that inhibited parasite growth by 50%) for each candidate compound were determined for axenic amastigotes with the aid of the program SoftMax Pro (Molecular Devices, Sunnyvale, Calif.) using the following dose response equation: y=((a−d)/1+(x/c)^b)+d, wherein x=drug concentration; y=absorbance at 490 nm; a=upper asymptote; b=slope; c=IC50; and d=lower asymptote. FIG. 2 is the graphical data obtained for compound 1DWB667 as an example.

L. donovani L82 = assay: In vivo assay, murine visceral model of leishmaniasis; design: species or system Leishmania donovani; conditions: BALB/c mice; for % inhibition ± S.E.M.: Table 4
J774.G8 macrophages = assay: Macrophage toxicity assay (sulforhodamine B); type: cell-based, mouse; conditions: Mus musculus, 72 hours, 37° C., macrophage growth inhibited by 50%
Description: The toxicity of the candidate compounds on J774.G8 macrophages was measured using a sulforhodamine B (Molecular Probes, Eugene, Oreg.) based dye assay.
Specifically, a confluent culture of macrophages in a T75 culture flask was harvested by replacing the growth medium (DMEM supplemented with 10% heat inactivated fetal calf serum, 50 units/ml penicillin, and 50 μg/ml streptomycin) with 25 ml of fresh medium and scraping the cells from the bottom of the culture flask. Cell clumps were broken up by gentle pipetting and the cell suspension was transferred to a 50 ml conical centrifuge tube. The cells were then pelleted by centrifugation at 1,000 rpm at 4° C. for 5 minutes. The supernatant was then removed and the cells were resuspended in 15 ml DMEM.
After counting an aliquot of the cell suspension, the macrophages were then diluted to about 1×10^5 cells/ml in DMEM and 180 μl was added to each well of a 96 well tissue culture plate Then 20 μl serial dilutions of a given candidate compound was added. The plate was then placed in a 37° C. humidified 5% CO2 incubator and incubated for 72 hours. Then 50 μl of 50% TCA was added to each well to fix the proteins. The plate was then incubated for at least 1 hour at 4° C.
The liquid contents of the wells were discarded and the wells were washed five times with 200 μl of distilled water. After the final wash the plate was allowed to air dry for 20 minutes. 100 μl of the sulforhodamine B dye (0.4% dye in 1% acetic acid) was added. The plate was then incubated at room temperature for 20 minutes. After discarding the dye solution, the wells were washed five times with 200 μl of 1% acetic acid and then allowed to air dry for 20 minutes. At this time, 50 μl of 10 mM TRIS base was added. After a few minutes of incubation, the absorbance of each well at 490 nm was measured in a SpectraMax Pro microplate reader (Molecular Devices, Sunnyvale, Calif.).
The IC50 values for each candidate compound (the concentration of the agent that inhibited macrophage growth by 50%) were determined for the macrophages with the aid of the program SoftMax Pro (Molecular Devices, Sunnyvale, Calif.) using the following dose response equation: y=((a−d)/1+(x/c)^b)+d, where x=drug concentration; y=absorbance at 490 nm; a=upper asymptote; b=slope; c=IC50; and d=lower asymptote. FIG. 5 provides the graphical data for compound 1DWB667 as an example.

2,5-Bis[2,6-dimethyl-4-(2-pyridylimino)aminophenyl]furan [DB 714]
Macrophage IC50 L. mexicana [1]: 0.359 µg/mL
Macrophage IC50 L. donovani [2]: 0.246 µg/mL
Axenic Amastigote IC50 L. donovani [3]: 0.290 µg/mL

c1cc(-c2ccc(-c3ccc(N=NC4CCCCC4)cc3)o2)ccc1N=NC1CCCCC1 [DB656, 2,5-Bis[4-(cyclohexylimino)aminophenyl]furan]
melting point: 242 to 243 °C (dec.)

2,5-Bis[2-methyl-4-(2-quinolylimino)aminophenyl]furan [DB716]
Axenic Amastigote IC50 L. donovani [3]: about 10 μg/ml

N=C(Nc1ccc(-c2ccc(-c3ccc(NC(=N)c4ccccc4)cc3)o2)cc1)c1ccccc1 (as salt: hydrochloride) [DB613, 2,5-Bis[4-(benzimidoylamino)phenyl]furan]
melting point: 312 to 314.5 °C

N=C(N)Nc1ccc(-c2ccc(-c3ccc(NC(=N)N)cc3)s2)cc1 [DB686, 2,5-Bis(4-guanidinophenyl)thiophene]
% inhibition ± S.E.M. (L. donovani L82; 10 mg/kg p.o. × 5): 34.91 ± 8.04%

C[C@@H]1[C@H](O)[C@@H](C)/C=C/C=C/C=C/C=C/C=C/C=C/C=C/[C@H](O[C@@H]2O[C@H](C)[C@@H](O)[C@H](N)[C@@H]2O)C[C@@H]2O[C@](O)(C[C@@H](O)C[C@@H](O)[C@H](O)CC[C@@H](O)C[C@@H](O)CC(=O)O[C@H]1C)C[C@H](O)[C@H]2C(=O)O [Amphotericin B, reference compound]
Macrophage IC50 L. mexicana [1]: 0.032 µg/mL
Macrophage IC50 L. donovani [2]: 0.024 µg/mL
Axenic Amastigote IC50 L. donovani [3]: 0.342 µg/mL

N=C(N)c1ccc(OCCCCCOc2ccc(C(=N)N)cc2)cc1 [Pentamidine, reference compound]
IC50 (J774.G8 macrophages): 9.96 µg/mL (≈ 29.3 µM)
IC50 ([1]; Leishmania mexicana, Macrophage, in Mus musculus, 72 h, read-out: Macrophage IC50 L. mexicana): > 12.5 µg/mL
reduction of parasite burden in L. mexicana infected macrophages (in words) ([1]; in vitro, cutaneous strain): ineffective in the macrophage model; also recorded: did not reduce the parasite burden
% Inhib. ± SEM (L. donovani L82; Table 3, 5 mg/kg i.v. × 5 (doses reduced by half, see footnotes a, c)): 30.5 ± 5.0%
% inhibition ± S.E.M. (L. donovani L82; 4 mg/kg i.v. × 5): 16.96 ± 3.3%
% Inhib. ± SEM (L. donovani L82; Table 5, 4 mg/kg i.v. × 5): 30.6 ± 5.2%
IC50 ([3]; Leishmania donovani): 1.22 µg/mL (≈ 3.58 µM)
